Data as given in PubChem BioAssay (NCI).
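96-well plates; 48 h exposure; 5 concentrations. Endpoints by linear interpolation between flanking doses. Not reached: highest tested concentration assigned. GI50 is the concentration that inhibits growth by half. At the TGI there is no net growth.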

What was measured:
Experiment in all cases: inhibition of tumour cell growth, NCI panel, 48 h
[1] = system: A549 NSCLC
[2] = system: HCT-15 colon
[3] = system: HOP-62 NSCLC
[4] = system: KM12 colon
[5] = system: MOLT-4 leukemia
[6] = system: NCI-H226 lung
[7] = system: SK-MEL-5 melanoma
[8] = system: SNB-19 CNS
[9] = system: UO-31 renal
[10] = system: T-47D breast

SMILES | TGI [1] [µM] | TGI [2] [µM] | TGI [3] [µM] | TGI [4] [µM] | TGI [5] [µM] | TGI [6] [µM] | TGI [7] [µM] | TGI [8] [µM] | TGI [9] [µM] | GI50 [1] [µM] | GI50 [2] [µM] | GI50 [3] [µM] | GI50 [4] [µM] | GI50 [5] [nM] | GI50 [6] [µM] | GI50 [7] [µM] | GI50 [8] [µM] | GI50 [10] [µM] | TGI [10] [µM] | GI50 [9] [nM]
CC(=O)ON(C(C)=O)C1C(COC(c2ccccc2)(c2ccccc2)c2ccccc2)OC2OC3(CCCC3)OC21 (stereo not given) | > 100 | > 100 | > 100 | > 100 | > 31 | > 100 | > 100 | > 100 | > 100 |  |  |  |  |  |  |  |  |  |  | 
Cn1nc(-c2ccccc2)c(C(=O)/C=C/c2ccc(F)cc2)c(N2CCOCC2)c1=O | 54.3 | > 100 |  |  | 48.7 |  | 29.3 | 31.8 | 25.6 |  |  |  |  |  |  |  |  |  |  | 
OC1CCC[C@@H]1Sc1ccccc1 (stereo not given in full) | > 100 | > 100 | > 100 | > 100 | > 100 |  | > 100 | > 100 | > 100 |  |  |  |  |  |  |  |  |  |  | 
N#Cc1cc(NC(=O)c2ccccc2)c(=O)n2c1[nH]c1ccccc12 | > 100 | > 100 | 88.1 | > 100 | > 100 |  | 34.2 | 74.7 | 42.9 |  |  |  |  |  |  |  |  |  |  | 
O=C1C2ON3c4ccccc4C(=O)C3(c3ccccc3)C2C(=O)N1c1ccccc1 (stereo not given) | > 100 | > 100 | > 100 |  | > 100 | > 100 | > 100 | > 100 | > 100 |  |  |  |  |  |  |  |  |  |  | 
COC(=O)C1=C(O)[C@H](C(=O)OC)[C@]2(O)[C@@H](C(=O)OC)[C@H]1C[C@@H](c1ccc(OC(=O)/C=C/c3ccco3)cc1)[C@@H]2C(=O)OC | > 100 | 24 | 30.5 | > 100 | 6.67 | 37.1 | 94.4 | 87.5 |  | 30.5 | 6.22 | 15.7 | 43.7 | 1290 | 15.8 | 27.1 | 22.6 | > 100 | > 100 | 
C1CCN2CC3CCCN4CCCC(C2C1)C34 (stereo not given) | > 100 | > 100 | > 100 | > 100 | > 100 | > 100 | > 100 | > 100 |  |  |  |  |  |  |  |  |  |  | > 100 | 
CC(C)CCC(=O)[C@@H](C)[C@H]1[C@@H](OC2OCC(O)C(O)C2NS(C)(=O)=O)C[C@H]2[C@@H]3CC=C4C[C@@H](O)CC[C@]4(C)[C@H]3CC[C@]12C (stereo not given in full) | 11.5 | 9.44 | 6.34 | 11 | 2.57 |  | 4.51 | 6.77 | 2.12 | 3.55 | 2.23 | 1.26 | 2.77 | 827 |  | 1.26 | 1.34 | 3.93 | 23 | 782
NNC(=O)N/N=C1\C(=O)N(c2nccs2)C(=O)C(=O)C1c1nc2ccccc2s1 (stereo not given) | > 100 | > 100 | > 100 | > 100 |  | > 100 |  | > 100 | > 100 |  |  |  |  |  |  |  |  |  |  | 
NNC(=S)Nc1cccc(Cl)c1 | > 100 | > 100 | > 100 | > 100 | > 100 |  | > 100 | > 100 | > 100 |  |  |  |  |  |  |  |  |  | > 100 | 
C#CCN(N=O)C(=O)NCCCC(NC(C)=O)C(=O)NCc1ccccc1 (stereo not given) | > 100 | > 100 | > 100 | > 100 | > 100 | > 100 | > 100 | > 100 | > 100 |  |  |  |  |  |  |  |  |  |  | 
C=C1C(=O)OC2C1C(OC(=O)/C(C)=C\C)CC1(CO1)C1C(O)C=C(C)C21O (stereo not given) | 40.6 | 11 | 41.1 | 24.4 | 11.8 |  | 17.7 | 35.2 | 22.2 |  |  |  |  |  |  |  |  |  |  | 
CCCN1C(=O)/C(=C/c2ccc(O)cc2)SC1=Nc1ccc(OC)cc1 | 26.1 | 25.7 | 80 | 28.7 | > 100 | 95.5 | 26 | 45.5 | > 100 | 12.5 | 12.6 | 28 | 10.6 | 10700 | 32 | 11 | 19.6 |  |  | 25700
CCOC(=O)C1SC(=Nc2ccc(Cl)cc2C)N=C1C (stereo not given) | 86.2 | 37.1 | 43.2 | 35.1 | 47.9 | 63.5 | 29.9 | > 100 | 39.9 |  |  |  |  |  |  |  |  |  |  | 
CN(C)CCNC(=O)c1cccc2ncc(-c3ccccc3)nc12 | > 74.9 | 25.2 | 34.7 | 29.4 | 9.35 | 31.3 | 24.1 | 78.7 | > 67.8 |  |  |  |  |  |  |  |  |  |  | 
Nc1nc(N)c(N=Nc2ccc(C(=O)O)c(O)c2)c(N)n1 | > 100 | > 100 | > 100 | > 100 | > 100 | > 100 | > 100 | > 100 | > 100 |  |  |  |  |  |  |  |  |  |  | 
Cc1cc(C)nc(NS(=O)(=O)c2ccc(NC(=O)c3ccc(Cl)c4c(Nc5ccc(S(=O)(=O)N=C(N)N)cc5)c5ccccc5nc34)cc2)n1 | > 100 |  | > 100 | > 100 | 63.2 | > 100 | > 100 | > 100 | > 100 |  |  |  |  |  |  |  |  |  |  | 
CN(C)CCC1(C2=CCCC2)CC/C(=C\c2ccccc2Cl)C1=O (stereo not given) | 28.4 | 19.4 |  | 27.3 | 18.3 |  | 26.7 | 27.8 | 20.1 |  |  |  |  |  |  |  |  |  |  | 
CCC[CH2][Sn]([CH2]CCC)([O]C(=O)c1cc(F)cc(F)c1)[O][Sn]([CH2]CCC)([CH2]CCC)[O]C(=O)c1cc(F)cc(F)c1 | 21.8 | 2.79 | 14.3 | 12.4 | 2.15 | 2.81 | 2.77 | 2.86 | 3.02 | 9.78 | 1.38 | 5 | 3.58 | 318 | 1.45 | 1.46 | 1.52 |  |  | 1660
